The test system of one series is Meloidogyne incognita. Kind of series: Nematicidal activity against Meloidogyne incognita. It is filed as functional.
Series [1] deals with Corynebacterium glutamicum. As to the kind of experiment: Antibacterial activity against Corynebacterium lilium assessed as diameter of inhibition zone at 50 ug measured after 24 hrs by agar diffusion method. It is filed as functional. Conditions: read-out: DIZ. A general note: Agar diffusion results depend on both activity and mobility in agar.
Series [2] relates to Bacillus subtilis. As to the kind of experiment: Antibacterial activity against Bacillus subtilis IFO-12732 assessed as diameter of inhibition zone at 50 ug measured after 24 hrs by agar diffusion method. The class given is functional. The following applies: IFO-12732, 24 h, read-out: DIZ.
Series [3] relates to Bacillus subtilis. As to the kind of experiment: Antibacterial activity against Bacillus subtilis IAM 1609 assessed as diameter of inhibition zone at 50 ug measured after 24 hrs by agar diffusion method. The class given is functional. The following applies: IAM 1609, 24 h, read-out: DIZ.
For the next series, the system named is Staphylococcus aureus. Kind of series: Antibacterial activity against Staphylococcus aureus R-209 assessed as diameter of inhibition zone at 50 ug measured after 24 hrs by agar diffusion method. It is filed as functional. Conditions: R-209, 24 h, read-out: DIZ.
Series [4] can be described thus: Toxicity in ip dosed mouse. The class given is organism-based. The following applies: in vivo.
Series [5] in a line: Therapeutic Index, ratio of CC50 for human C8166 cells to EC50 for HIV1 3B infected in human C8166 cells. It is filed as toxicity, cell-based. The following applies: HIV-1 3B infected C8166 cells, read-out: Ratio CC50/EC50.
In series [6] the test system is Human immunodeficiency virus 1. As to the kind of experiment: Antiviral activity against HIV1 3B infected in human C8166 cells assessed as inhibition of virus-induced syncytia formation after 3 days. Conditions: Human immunodeficiency virus 1, 3B, C8166, 72 h. It is filed as functional, organism-based.
In a further series the test system is Mus musculus. Kind of series: Antithrombotic activity in ICR mouse assessed as inhibition of platelet aggregation at 20 mg/kg, po measured after 1 hr relative to control. It is filed as functional.
Series [7] has as its system Mycobacterium tuberculosis. As to the kind of experiment: Antimycobacterial activity against Mycobacterium tuberculosis H37Ra. The class given is functional.

In brackets after ≈: the same amount, converted by molar mass. *1 amine or outer side, *2 acyl side, *3 side chain or, on linkers, in order; H or OH if unused. Where a SMILES comes first, the peptide text is derived from it. [ ]: non-standard residue; d: D form. X1 = C[C@@H]([C@H](C)OC(=O)CC(C)(C)O)[C@@H](C(=O)[*:2])N(C)[*:1]; X5 = O=C([C@@H]1C[C@@]2(O)c3ccccc3N(O)[C@H]2N1[*:1])[*:2]; X6 = CC(=O)O[C@@H](C)[C@H](C)[C@@H](C(=O)[*:2])N(C)[*:1]; X3 = O=C([C@@H]1C[C@@]2(O)c3ccccc3N[C@H]2N1[*:1])[*:2]; X7 = CC(=O)O[C@@H](C(=O)[*:2])N(C)[*:1]; NMeVal(β-OH) = CN[C@H](C(=O)O)C(C)(C)O; X2 = CC(=O)O[C@H](C(=O)[*:2])N(C)[*:1]; NMeI = CC[C@H](C)[C@H](NC)C(=O)O; X4 = CN([C@H](O)C(=O)[*:2])[*:1]; NMeV = CN[C@H](C(=O)O)C(C)C; Sar = CNCC(=O)O

In the series with Meloidogyne incognita, `CC[C@H](C)[C@@H]1NC(=O)[C@H](C(C)C)N(C)C(=O)[C@H](Cc2c[nH]c3ccccc23)NC(=O)CN(C)C(=O)[C@H]([C@@H](C)CC)N(C)C(=O)[C@H](C(C)C)NC(=O)CN(C)C(=O)[C@H]([C@@H](C)CC)N(C)C(=O)[C@H](C(C)C)N(C)C(=O)CN(C)C(=O)[C@H](C(C)C)N(C)C(=O)[C@H](C(C)C)N(C)C1=O` (HELM PEPTIDE1{I.[meV].[meV].[Sar].[meV].[meI].[Sar].V.[meI].[Sar].W.[meV]}$PEPTIDE1,PEPTIDE1,1:R1-12:R2$$$V2.0) showed an LD90 of 2 to 5 µg/mL.

`CC[C@H](C)[C@@H]1NC(=O)[C@H](C(C)C)N(C)C(=O)[C@@H]2C[C@@]3(O)c4ccccc4N[C@H]3N2C(=O)CN(C)C(=O)[C@H]([C@@H](C)CC)N(C)C(=O)[C@H](C(C)C)NC(=O)[C@@H](O)N(C)C(=O)[C@H]([C@@H](C)[C@H](C)OC(=O)CC(C)(C)O)N(C)C(=O)[C@H](C(C)(C)O)N(C)C(=O)CN(C)C(=O)[C@H](C(C)C)N(C)C(=O)[C@H](C(C)C)N(C)C1=O` (cyclo(I[NMeV][NMeV][Sar][NMeVal(β-OH)][X1][X4]V[NMeI][Sar][X3][NMeV])): the LD90 in the series on Meloidogyne incognita was in the range of 2 to 5 µg/mL.

`CC(=O)N[C@@H](Cc1c[nH]c2ccccc12)C(=O)N[C@H](C(=O)NC(C)(C)C(=O)NC(C)(C)C(=O)N[C@@H](C)C(=O)N[C@@H](CCC(N)=O)C(=O)N[C@@H](C)C(=O)NC(C)(C)C(=O)N[C@@H](CO)C(=O)NC(C)(C)C(=O)N[C@@H](C)C(=O)N[C@@H](CC(C)C)C(=O)NC(C)(C)C(=O)N[C@@H](CCC(N)=O)C(=O)N[C@H](CO)CC(C)C)C(C)C` (HELM PEPTIDE1{[ac].W.V.[Aib].[Aib].A.Q.A.[Aib].S.[Aib].A.L.[Aib].Q.[CC(C)C[C@@H](CO)N[*:1]]}$$$$V2.0): the zone of inhibition at 50 µg/disc (in [1]; in the series with Bacillus subtilis [2]; in the series on Bacillus subtilis [3]; in the series on Staphylococcus aureus) was 13 to 18 mm each time.

`CC[C@H](C)[C@@H]1NC(=O)[C@H](C(C)C)N(C)C(=O)[C@@H]2C[C@@]3(O)c4ccccc4N[C@H]3N2C(=O)CN(C)C(=O)[C@H]([C@@H](C)CC)N(C)C(=O)[C@H](C(C)C)NC(=O)CN(C)C(=O)[C@H]([C@@H](C)CC)N(C)C(=O)[C@H](C(C)(C)O)N(C)C(=O)CN(C)C(=O)[C@H](C(C)C)N(C)C(=O)[C@H](C(C)C)N(C)C1=O` (HELM PEPTIDE1{I.[meV].[meV].[Sar].[CN([C@H](C(=O)[*:2])C(C)(C)O)[*:1]].[meI].[Sar].V.[meI].[Sar].[O=C([C@@H]1C[C@@]2(O)c3ccccc3N[C@H]2N1[*:1])[*:2]].[meV]}$PEPTIDE1,PEPTIDE1,1:R1-12:R2$$$V2.0) displayed an LD90 in the series with Meloidogyne incognita of 2 to 5 µg/mL.

Regarding `CC[C@H](C)[C@@H]1NC(=O)[C@H](C(C)C)N(C)C(=O)[C@@H]2C[C@@]3(O)c4ccccc4N(O)[C@H]3N2C(=O)CN(C)C(=O)[C@H]([C@@H](C)CC)N(C)C(=O)[C@H](C(C)C)NC(=O)[C@@H](OC(C)=O)N(C)C(=O)[C@H]([C@@H](C)[C@H](C)OC(=O)CC(C)(C)O)N(C)C(=O)[C@H](C(C)(C)O)N(C)C(=O)CN(C)C(=O)[C@H](C(C)C)N(C)C(=O)[C@H](C(C)C)N(C)C1=O` (cyclo(I[NMeV][NMeV][Sar][NMeVal(β-OH)][X1][X2]V[NMeI][Sar][X5][NMeV])), the LD90 with Meloidogyne incognita was 2 to 5 µg/mL.

Broadly, the LD50 is the dose at which mortality reaches 50%. A high value points to a less toxic substance. In the case of `CC[C@H](C)[C@@H]1NC(=O)CNC(=O)[C@@H]2Cc3c([nH]c4cc(O)ccc34)[S+]([O-])C[C@H](NC(=O)CNC1=O)C(=O)N[C@@H](CC(N)=O)C(=O)N1C[C@H](O)C[C@H]1C(=O)N[C@@H]([C@@H](C)[C@H](C)O)C(=O)N2` (some centres undefined), the 50% lethal dose (LD50) in [4] is 0.2 to 0.5 mg/kg.

For the molecule `CC[C@H](C)[C@@H]1NC(=O)[C@H](C(C)C)N(C)C(=O)[C@@H]2C[C@@]3(O)c4ccccc4N[C@H]3N2C(=O)CN(C)C(=O)[C@H]([C@@H](C)CC)N(C)C(=O)[C@H](C(C)C)NC(=O)[C@@H](OC(C)=O)N(C)C(=O)[C@H]([C@@H](C)[C@H](C)OC(=O)CC(C)(C)O)N(C)C(=O)[C@H](C(C)(C)O)N(C)C(=O)CN(C)C(=O)[C@H](C(C)C)N(C)C(=O)[C@H](C(C)C)N(C)C1=O` (cyclo(I[NMeV][NMeV][Sar][NMeVal(β-OH)][X1][X2]V[NMeI][Sar][X3][NMeV])), the LD90 in the series with Meloidogyne incognita was 2 to 5 µg/mL.

In series [4], `CC[C@H](C)[C@@H]1NC(=O)CNC(=O)[C@@H]2Cc3c([nH]c4cc(O)ccc34)[S+]([O-])C[C@H](NC(=O)CNC1=O)C(=O)N[C@@H](CC(=O)O)C(=O)N1C[C@H](O)C[C@H]1C(=O)N[C@@H]([C@@H](C)[C@@H](O)CO)C(=O)N2` (some centres undefined) gave an LD50 of 0.2 to 0.5 mg/kg.

Regarding `CC[C@H](C)[C@@H]1NC(=O)[C@H](C(C)C)N(C)C(=O)[C@@H]2C[C@@]3(O)c4ccccc4N(O)[C@H]3N2C(=O)CN(C)C(=O)[C@H]([C@@H](C)CC)N(C)C(=O)[C@H](C(C)C)NC(=O)[C@@H](O)N(C)C(=O)[C@H]([C@@H](C)CC)N(C)C(=O)[C@H](C(C)(C)O)N(C)C(=O)CN(C)C(=O)[C@H](C(C)C)N(C)C(=O)[C@H](C(C)C)N(C)C1=O` (cyclo(I[NMeV][NMeV][Sar][NMeVal(β-OH)][NMeI][X4]V[NMeI][Sar][X5][NMeV])), the LD90 with Meloidogyne incognita was in the range of 2 to 5 µg/mL.

Usually EC50 stands for the concentration needed to bring the measured effect to its halfway point. Regarding `O=C(O)c1cc2c([nH]c3ccccc32)c(-c2ccc(CO)o2)n1` [FLAZINE], the selectivity ratio in series [5] came out at 12.1. In series [6], the EC50 worked out at 2360 nM.

By inhibition in vivo is commonly meant the percentage by which the read-out fell short of the control. Regarding `N[C@@H](Cc1c[nH]c2ccccc12)C(=O)NCC(=O)N[C@@H](CS)C(=O)O` (H-Trp-Gly-Cys-OH), the inhibition in vivo at 20 mg/kg in the series on Mus musculus was determined as 83.3%.

`CC[C@H](C)[C@@H]1NC(=O)[C@H](C(C)C)N(C)C(=O)[C@@H]2C[C@@]3(O)c4ccccc4N(O)[C@H]3N2C(=O)CN(C)C(=O)[C@H]([C@@H](C)CC)N(C)C(=O)[C@H](C(C)C)NC(=O)[C@@H](OC(C)=O)N(C)C(=O)[C@H]([C@@H](C)[C@H](C)OC(C)=O)N(C)C(=O)[C@H](C(C)(C)O)N(C)C(=O)CN(C)C(=O)[C@H](C(C)C)N(C)C(=O)[C@H](C(C)C)N(C)C1=O` (cyclo(I[NMeV][NMeV][Sar][NMeVal(β-OH)][X6][X2]V[NMeI][Sar][X5][NMeV])): the LD90 with Meloidogyne incognita was 2 to 5 µg/mL.

A word on the MIC: it is the least concentration at which growth counts as inhibited. `C=CC(C)(C)c1[nH]c2c(CC=C(C)C)cc(CC=C(C)C)cc2c1C[C@H]1NC(=O)[C@@H](C)NC1=O`: the minimal inhibitory concentration (MIC) in series [7] was 170 µM (≈ 78.4 µg/mL).

As for `CC[C@H](C)[C@@H]1NC(=O)CNC(=O)[C@@H]2Cc3c([nH]c4cc(O)ccc34)[S+]([O-])C[C@H](NC(=O)CNC1=O)C(=O)N[C@@H](CC(N)=O)C(=O)N1C[C@H](O)C[C@H]1C(=O)N[C@@H]([C@@H](C)[C@@H](O)CO)C(=O)N2` (some centres undefined), in series [4], the 50% lethal dose (LD50) was 0.2 to 0.5 mg/kg.

In the series with Meloidogyne incognita, `CC[C@H](C)[C@@H]1NC(=O)[C@H](C(C)C)N(C)C(=O)[C@@H]2C[C@@]3(O)c4ccccc4N[C@H]3N2C(=O)CN(C)C(=O)[C@H]([C@@H](C)CC)N(C)C(=O)[C@H](C(C)C)NC(=O)[C@H](OC(C)=O)N(C)C(=O)[C@H]([C@@H](C)[C@H](C)OC(C)=O)N(C)C(=O)[C@H](C(C)(C)O)N(C)C(=O)CN(C)C(=O)[C@H](C(C)C)N(C)C(=O)[C@H](C(C)C)N(C)C1=O` (cyclo(I[NMeV][NMeV][Sar][NMeVal(β-OH)][X6][X7]V[NMeI][Sar][X3][NMeV])) registered an LD90 of 2 to 5 µg/mL.

On to `CC[C@H](C)[C@@H]1NC(=O)[C@H](C(C)C)N(C)C(=O)[C@@H]2C[C@@]3(O)c4ccccc4N(O)[C@H]3N2C(=O)CN(C)C(=O)[C@H]([C@@H](C)CC)N(C)C(=O)[C@H](C(C)C)NC(=O)CN(C)C(=O)[C@H]([C@@H](C)CC)N(C)C(=O)[C@H](C(C)(C)O)N(C)C(=O)CN(C)C(=O)[C@H](C(C)C)N(C)C(=O)[C@H](C(C)C)N(C)C1=O` (HELM PEPTIDE1{I.[meV].[meV].[Sar].[CN([C@H](C(=O)[*:2])C(C)(C)O)[*:1]].[meI].[Sar].V.[meI].[Sar].[O=C([C@@H]1C[C@@]2(O)c3ccccc3N(O)[C@H]2N1[*:1])[*:2]].[meV]}$PEPTIDE1,PEPTIDE1,1:R1-12:R2$$$V2.0), for which, in the series on Meloidogyne incognita, the LD90 fell in the range of 2 to 5 µg/mL.

`CC[C@@](C)(NC(=O)C(C)(C)NC(=O)[C@@H](NC(=O)[C@H](Cc1c[nH]c2ccccc12)NC(C)=O)C(C)C)C(=O)N[C@@H](C)C(=O)N[C@@H](CCC(N)=O)C(=O)N[C@@H](C)C(=O)NC(C)(C)C(=O)N[C@@H](CO)C(=O)NC(C)(C)C(=O)N[C@@H](C)C(=O)N[C@@H](CC(C)C)C(=O)NC(C)(C)C(=O)N[C@@H](CCC(N)=O)C(=O)N[C@H](CO)CC(C)C`: the zone of inhibition at 50 µg/disc (in series [1]; in the series on Bacillus subtilis [2]; in the series on Bacillus subtilis [3]; in the series with Staphylococcus aureus) was 13 to 18 mm throughout.
